Experimental data as given in ChEMBL document CHEMBL3774317, “Design and synthesis of novel tamoxifen analogues that avoid CYP2D6 metabolism” (Eur J Med Chem, 2016).

How the values were obtained:
Assay type in all cases: functional
ACHN = experiment: Cytotoxicity against human ACHN cells assessed as growth inhibition after 48 hrs by SRB assay
[1] = Cytotoxicity against human COLO205 cells assessed as growth inhibition after 48 hrs by SRB assay; conditions: COLO 205, 48 h; for CC50: read-out: LC50 (the source's name)
CCRF-CEM = experiment: Cytotoxicity against human CCRF-CEM cells assessed as growth inhibition after 48 hrs by SRB assay; conditions: for CC50: read-out: LC50 (the source's name)
NCI-H522 = experiment: Cytotoxicity against human NCI-H522 cells assessed as growth inhibition after 48 hrs by SRB assay; conditions: NCI-H522, 48 h; for CC50: read-out: LC50 (the source's name)
NCI-H460 = experiment: Cytotoxicity against human NCI-H460 cells assessed as growth inhibition after 48 hrs by SRB assay; conditions: NCI-H460, 48 h; for CC50: read-out: LC50 (the source's name)
[2] = Cytotoxicity against human PC3 cells assessed as growth inhibition after 48 hrs by SRB assay; conditions: PC-3, 48 h
786-0 = experiment: Cytotoxicity against human 786-0 cells assessed as growth inhibition after 48 hrs by SRB assay; conditions: 786-0, 48 h; for CC50: read-out: LC50 (the source's name)
A498 = experiment: Cytotoxicity against human A498 cells assessed as growth inhibition after 48 hrs by SRB assay; conditions: A498, 48 h
[3] = Cytotoxicity against human SNB19 cells assessed as growth inhibition after 48 hrs by SRB assay; conditions: SNB-19, 48 h; for CC50: read-out: LC50 (the source's name)
[4] = Cytotoxicity against human RPMI8226 cells assessed as growth inhibition after 48 hrs by SRB assay; conditions: RPMI-8226, 48 h
A549 = experiment: Cytotoxicity against human A549 cells assessed as growth inhibition after 48 hrs by SRB assay; conditions: A549, 48 h
NCI-H226 = experiment: Cytotoxicity against human NCI-H226 cells assessed as growth inhibition after 48 hrs by SRB assay; conditions: NCI-H226, 48 h
HT-29 = experiment: Cytotoxicity against human HT-29 cells assessed as growth inhibition after 48 hrs by SRB assay; conditions: HT-29, 48 h; for CC50: read-out: LC50 (the source's name)
[5] = Cytotoxicity against human OVCAR3 cells assessed as growth inhibition after 48 hrs by SRB assay; conditions: OVCAR-3, 48 h
[6] = Cytotoxicity against human UACC62 cells assessed as growth inhibition after 48 hrs by SRB assay; conditions: UACC-62, 48 h; for CC50: read-out: LC50 (the source's name)
SK-MEL-28 = experiment: Cytotoxicity against human SK-MEL-28 cells assessed as growth inhibition after 48 hrs by SRB assay; conditions: SK-MEL-28, 48 h
[7] = Cytotoxicity against human IGROV1 cells assessed as growth inhibition after 48 hrs by SRB assay; conditions: IGROV-1, 48 h; for CC50: read-out: LC50 (the source's name)
[8] = Cytotoxicity against human HCT15 cells assessed as growth inhibition after 48 hrs by SRB assay; conditions: HCT-15, 48 h
[9] = Cytotoxicity against human HL-60(TB) cells assessed as growth inhibition after 48 hrs by SRB assay; conditions: HL-60, 48 h; for CC50: read-out: LC50 (the source's name)
MDA-MB-435 = experiment: Cytotoxicity against human MDA-MB-435 cells assessed as growth inhibition after 48 hrs by SRB assay; conditions: MDA-MB-435, 48 h; for CC50: read-out: LC50 (the source's name)
[10] = Cytotoxicity against human SF268 cells assessed as growth inhibition after 48 hrs by SRB assay; conditions: SF-268, 48 h
[11] = Cytotoxicity against human SF539 cells assessed as growth inhibition after 48 hrs by SRB assay; conditions: SF-539, 48 h
[12] = Cytotoxicity against human SKOV3 cells assessed as growth inhibition after 48 hrs by SRB assay; conditions: SK-OV-3, 48 h; for CC50: read-out: LC50 (the source's name)
MDA-MB-468 = experiment: Cytotoxicity against human MDA-MB-468 cells assessed as growth inhibition after 48 hrs by SRB assay; conditions: MDA-MB-468, 48 h; for CC50: read-out: LC50 (the source's name)
M14 = experiment: Cytotoxicity against human M14 cells assessed as growth inhibition after 48 hrs by SRB assay; conditions: M14, 48 h; for CC50: read-out: LC50 (the source's name)
[13] = Cytotoxicity against human Caki1 cells assessed as growth inhibition after 48 hrs by SRB assay; conditions: CAKI-1, 48 h
[14] = Cytotoxicity against human BT549 cells assessed as growth inhibition after 48 hrs by SRB assay; conditions: BT-549, 48 h; for CC50: read-out: LC50 (the source's name)

C/C(=C(/c1ccc(O)cc1)c1ccc(OCCN2CCCC2)cc1)c1ccccc1
GI50 (ACHN): 4.28 µM
LC50 (concentration causing 50% net cell kill) (ACHN): 44.1 µM
TGI (ACHN): 16.3 µM
GI50 [1]: 1.7 µM
TGI [1]: 3.38 µM
CC50 [1]: 6.73 µM
GI50 (CCRF-CEM): 3.2 µM
TGI (CCRF-CEM): 9.85 µM
CC50 (CCRF-CEM): 50 µM
GI50 (NCI-H522): 2.1 µM
TGI (NCI-H522): 5.09 µM
CC50 (NCI-H522): 18.6 µM
GI50 (NCI-H460): 2.36 µM
TGI (NCI-H460): 5.38 µM
CC50 (NCI-H460): 16.9 µM
GI50 [2]: 4.28 µM
LC50 [2]: 40.1 µM
TGI [2]: 14.7 µM
GI50 (786-0): 1.86 µM
TGI (786-0): 4.09 µM
CC50 (786-0): 9 µM
GI50 (A498): 1.67 µM
LC50 (A498): 38.5 µM
TGI (A498): 8.49 µM
GI50 [3]: 2.95 µM
TGI [3]: 8.1 µM
CC50 [3]: 42.2 µM
GI50 [4]: 2.4 µM
LC50 [4]: 65 µM
TGI [4]: 6.72 µM
GI50 (A549): 3.53 µM
LC50 (A549): 35 µM
TGI (A549): 11 µM
GI50 (NCI-H226): 11.3 µM
LC50 (50% lethal concentration) (NCI-H226): 79 µM
TGI (NCI-H226): 29.8 µM
GI50 (HT-29): 1.35 µM
TGI (HT-29): 3.2 µM
CC50 (HT-29): 7.58 µM
GI50 [5]: 5.66 µM
LC50 [5]: 42.5 µM
TGI [5]: 18.1 µM
GI50 [6]: 2.26 µM
TGI [6]: 4.72 µM
CC50 [6]: 9.84 µM
GI50 (SK-MEL-28): 1.65 µM
LC50 (concentration killing 50% of starting cells) (SK-MEL-28): 7.05 µM
TGI (SK-MEL-28): 3.41 µM
GI50 [7]: 6.8 µM
TGI [7]: 27 µM
CC50 [7]: 90.7 µM
GI50 [8]: 1.81 µM
LC50 (concentration killing 50% of cells) [8]: 14.4 µM
TGI [8]: 4.64 µM
GI50 [9]: 2.04 µM
TGI [9]: 4.97 µM
CC50 [9]: 23.4 µM
GI50 (MDA-MB-435): 1.88 µM
TGI (MDA-MB-435): 4.4 µM
CC50 (MDA-MB-435): 10.8 µM
GI50 [10]: 5.58 µM
LC50 [10]: 55.2 µM
TGI [10]: 20.7 µM
GI50 [11]: 1.81 µM
LC50 [11]: 7.79 µM
TGI [11]: 3.76 µM
GI50 [12]: 3.25 µM
TGI [12]: 13 µM
CC50 [12]: 36.9 µM
GI50 (MDA-MB-468): 1.84 µM
TGI (MDA-MB-468): 4.47 µM
CC50 (MDA-MB-468): 13 µM
GI50 (M14): 1.88 µM
TGI (M14): 4.08 µM
CC50 (M14): 8.86 µM
GI50 [13]: 3.02 µM
LC50 [13]: 37.3 µM
TGI [13]: 13.9 µM
GI50 [14]: 4.2 µM
TGI [14]: 15.7 µM
CC50 [14]: 39.6 µM

CCCCCCCCCC(=O)Oc1ccc(/C(=C(/C)c2ccccc2)c2ccc(OCCN3CCCC3)cc2)cc1
GI50 (ACHN): 8.16 µM
LC50 (concentration causing 50% net cell kill) (ACHN): 29.3 µM
TGI (ACHN): 15.5 µM
TGI [1]: 14.7 µM
CC50 [1]: 29.1 µM
GI50 (CCRF-CEM): 9.51 µM
TGI (CCRF-CEM): 22.3 µM
CC50 (CCRF-CEM): 50 µM
GI50 (NCI-H522): 9.36 µM
TGI (NCI-H522): 18.4 µM
CC50 (NCI-H522): 36.3 µM
GI50 (NCI-H460): 8.46 µM
TGI (NCI-H460): 15.9 µM
CC50 (NCI-H460): 29.9 µM
GI50 [2]: 8.28 µM
LC50 [2]: 30 µM
TGI [2]: 15.7 µM
GI50 (786-0): 8.77 µM
TGI (786-0): 16.8 µM
CC50 (786-0): 32.2 µM
LC50 (A498): 29.4 µM
TGI (A498): 13.5 µM
GI50 [3]: 9.04 µM
TGI [3]: 17.7 µM
CC50 [3]: 34.7 µM
GI50 [4]: 9.13 µM
LC50 [4]: 48.5 µM
TGI [4]: 21 µM
GI50 (A549): 9.35 µM
LC50 (A549): 33.4 µM
TGI (A549): 17.7 µM
GI50 (NCI-H226): 9.42 µM
LC50 (50% lethal concentration) (NCI-H226): 36.4 µM
TGI (NCI-H226): 18.5 µM
TGI (HT-29): 12.3 µM
CC50 (HT-29): 27 µM
GI50 [5]: 8.18 µM
LC50 [5]: 31.6 µM
TGI [5]: 16.1 µM
GI50 [6]: 9.18 µM
TGI [6]: 16.8 µM
CC50 [6]: 30.9 µM
LC50 (concentration killing 50% of starting cells) (SK-MEL-28): 28.6 µM
TGI (SK-MEL-28): 15.3 µM
GI50 [7]: 8.87 µM
TGI [7]: 19.5 µM
CC50 [7]: 43.7 µM
GI50 [8]: 6.69 µM
LC50 (concentration killing 50% of cells) [8]: 25.6 µM
TGI [8]: 13.1 µM
GI50 [9]: 9.24 µM
TGI [9]: 18.7 µM
CC50 [9]: 37.8 µM
GI50 (MDA-MB-435): 7.47 µM
TGI (MDA-MB-435): 14.1 µM
CC50 (MDA-MB-435): 26.5 µM
GI50 [10]: 8.16 µM
LC50 [10]: 36.3 µM
TGI [10]: 17.2 µM
GI50 [11]: 8.7 µM
LC50 [11]: 32.9 µM
TGI [11]: 16.9 µM
GI50 [12]: 7.36 µM
TGI [12]: 14.8 µM
CC50 [12]: 29.6 µM
GI50 (MDA-MB-468): 7.26 µM
TGI (MDA-MB-468): 14.7 µM
CC50 (MDA-MB-468): 29.7 µM
TGI (M14): 16.5 µM
CC50 (M14): 32.8 µM
GI50 [13]: 6.77 µM
LC50 [13]: 28.7 µM
TGI [13]: 13.9 µM
GI50 [14]: 8.22 µM
TGI [14]: 16.8 µM
CC50 [14]: 34.5 µM
